Results on 17 compounds are retold here after PubChem BioAssay (NCI).

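Compound exposure: 48 hours, 5 concentrations, 96-well plates. The concentration for 50% growth inhibition is given as GI50. Definition used: TGI = concentration required for complete inhibition of growth.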

Test systems include SR leukemia; MOLT-4 leukemia; U251 CNS; IGROV1 ovarian; RPMI-8226 leukemia; MALME-3M melanoma; UO-31 renal; SW-620 colon; SN12C renal; RXF 393 renal.
Assay in all cases: inhibition of tumour cell growth, NCI panel, 48 h

On to `CCCCCC/C=C/CCCCCCCc1cccc(O)c1C(=O)O`, for which the TGI is above 100 µM in the assay on SR leukemia; above 100 µM with MOLT-4 leukemia; 88.2 µM in the assay with U251 CNS; above 100 µM in the assay with IGROV1 ovarian; above 100 µM in the assay with RPMI-8226 leukemia; above 100 µM in the assay on MALME-3M melanoma. Moreover, the TGI in the assay on UO-31 renal and with SW-620 colon was above 100 µM throughout.

Regarding `CCCCCC/C=C\CCCCCCCCCc1c(O)c(OC)cc(O)c1CN(C)C`, the TGI with SR leukemia amounted to 4.23 µM; with MOLT-4 leukemia it was 4.5 µM; in the assay with SN12C renal it was 20.7 µM; with U251 CNS it was 13.4 µM; with IGROV1 ovarian, 11 µM; with RPMI-8226 leukemia it was 7.62 µM. Also, the TGI in the assay on UO-31 renal is 15.5 µM; in the assay with SW-620 colon, above 100 µM.

On to `COc1ccc(CC(C#N)c2cc(OC)c(OC)c(OC)c2)cc1` (stereo unspecified), for which the TGI in the assay on SR leukemia is 2.15 µM; in the assay on MOLT-4 leukemia, above 100 µM; with SN12C renal, above 79.9 µM; in the assay with U251 CNS it was 6.32 µM; in the assay on IGROV1 ovarian, above 100 µM; in the assay with RPMI-8226 leukemia, 46.6 µM. The TGI with MALME-3M melanoma, with UO-31 renal and with SW-620 colon was above 100 µM throughout.

On to `C=C(CN(CCN1CCOCC1)CC(=C)c1ccc(C(=O)Nc2ccccc2N)cc1)c1ccc(C(=O)Nc2ccccc2N)cc1`, for which the GI50 was 11.7 µM in the assay on SR leukemia; 7.43 µM in the assay with SN12C renal; 5.78 µM in the assay with U251 CNS; 11.9 µM in the assay on RXF 393 renal; 7.37 µM in the assay with IGROV1 ovarian; 2.68 µM in the assay with RPMI-8226 leukemia. Also, the results for the GI50 with UO-31 renal and in the assay on SW-620 colon were 5.2 µM and 8.71 µM, respectively. Moreover, the TGI in the assay with SR leukemia is above 50 µM; in the assay with SN12C renal it was 21.2 µM; in the assay with U251 CNS, 12.4 µM; in the assay with RXF 393 renal, 23.6 µM; with IGROV1 ovarian, 29.1 µM; in the assay on RPMI-8226 leukemia, above 50 µM. Besides, the TGI in the assay on UO-31 renal turned out to be 11.4 µM; with SW-620 colon, 38.5 µM.

In the case of `C=C(C)C(=O)N1c2ccc(OC)cc2CC1C(=O)OCC` (stereo unspecified), the TGI in the assay with SR leukemia, in the assay on MOLT-4 leukemia, in the assay with SN12C renal, in the assay with U251 CNS, in the assay on IGROV1 ovarian and in the assay on UO-31 renal was above 100 µM throughout. The compound also displayed a TGI with SW-620 colon above 100 µM.

In the case of `CO[C@H]1/C=C/C[C@H](C)[C@@H](C)S(=O)(=O)NC(=O)c2ccc3c(c2)N(C[C@@H]2CC[C@H]21)C[C@@]1(CCCc2cc(Cl)ccc21)CO3`, the GI50 with SR leukemia was 0.67 µM; in the assay with MOLT-4 leukemia, 1.73 µM; with SN12C renal it was 2.37 µM; in the assay with U251 CNS, 2.47 µM; with IGROV1 ovarian, 3.08 µM; in the assay with RPMI-8226 leukemia, 0.132 µM. The GI50 was 1.97 µM in the assay on MALME-3M melanoma, 3.19 µM in the assay on UO-31 renal and 2.84 µM with SW-620 colon. Also, the TGI turned out to be 12.2 µM with SR leukemia; 8.8 µM in the assay with MOLT-4 leukemia; 6.63 µM in the assay on SN12C renal; 6.86 µM with U251 CNS; 10.6 µM with IGROV1 ovarian; 0.534 µM with RPMI-8226 leukemia. Moreover, the TGI in the assay on MALME-3M melanoma stood at 4.14 µM; with UO-31 renal, 11.1 µM; in the assay with SW-620 colon, 10.3 µM.

As to `CN(/C(=N\O)c1ccccc1)c1ccccc1`, the TGI with SR leukemia is 75.4 µM; in the assay on SN12C renal, above 100 µM; in the assay on U251 CNS, 37.6 µM; in the assay with MALME-3M melanoma it was 84.1 µM; in the assay on UO-31 renal, 69.3 µM; in the assay on SW-620 colon it was above 100 µM.

With `Cc1cc(Cl)ccc1Nc1nc(C(F)(F)F)ccc1C(=O)N/N=C/c1ccc(N(C)C)cc1`, the GI50 was 0.872 µM in the assay on SR leukemia; 2.22 µM in the assay with MOLT-4 leukemia; 3.99 µM with SN12C renal; 1.42 µM with U251 CNS; 0.633 µM in the assay on RXF 393 renal; 2.03 µM in the assay with IGROV1 ovarian. The GI50 with RPMI-8226 leukemia was 2.94 µM; in the assay with UO-31 renal, 2.97 µM; with SW-620 colon it was 2.04 µM. Besides, the TGI was 6.79 µM in the assay with SR leukemia; above 100 µM in the assay with MOLT-4 leukemia; above 100 µM in the assay on SN12C renal; above 100 µM in the assay with U251 CNS; 44.4 µM in the assay on RXF 393 renal; 9.11 µM with IGROV1 ovarian. Besides, the TGI in the assay on RPMI-8226 leukemia, in the assay on UO-31 renal and in the assay with SW-620 colon was above 100 µM in each case.

Consider `CCOC(CN(C)C(=O)OCC(Cl)(Cl)Cl)OCC`, for which the TGI with SR leukemia, in the assay on MOLT-4 leukemia, in the assay on SN12C renal, in the assay with U251 CNS, in the assay with RXF 393 renal and in the assay with IGROV1 ovarian was above 100 µM throughout. For the same compound, the TGI with UO-31 renal and with SW-620 colon was above 100 µM each time.

As for `CN(C)C(=S)/N=c1\ssc(=S)n1Cc1ccccn1`, the TGI is above 100 µM in the assay on MOLT-4 leukemia; above 100 µM in the assay on SN12C renal; above 100 µM with U251 CNS; 20 µM in the assay on RXF 393 renal; above 100 µM in the assay on IGROV1 ovarian; above 25.9 µM in the assay on RPMI-8226 leukemia. The results for the TGI in the assay on MALME-3M melanoma, in the assay on UO-31 renal and in the assay with SW-620 colon were 22.7 µM, above 100 µM and above 100 µM, respectively.

With `CCc1ccccc1NC(=O)C1=C(C)NC(C)=C(C(=O)Nc2ccccc2CC)C1c1ccc(NC(C)=O)cc1`, the TGI in the assay on MOLT-4 leukemia was 54.4 µM; with SN12C renal, above 100 µM; in the assay with U251 CNS it was above 100 µM; in the assay with RXF 393 renal, 65 µM; with IGROV1 ovarian, above 100 µM; in the assay on RPMI-8226 leukemia, 48.9 µM. Further, the TGI in the assay with MALME-3M melanoma, in the assay with UO-31 renal and in the assay on SW-620 colon was above 100 µM throughout.

Regarding `Cn1c(=O)c2[nH]cnc2n(CC(=O)O)c1=O`, the TGI in the assay with SR leukemia, with MOLT-4 leukemia, with SN12C renal, in the assay with U251 CNS, in the assay on IGROV1 ovarian and in the assay on RPMI-8226 leukemia was above 100 µM each time. In addition, the TGI in the assay with MALME-3M melanoma, with UO-31 renal and in the assay with SW-620 colon was above 100 µM throughout.

For the compound `O=C(Nn1c2c(sc1=NC1CC1)C(=O)c1ccccc1C2=O)c1cc2ccc1CCc1ccc(cc1)CC2`, the GI50 was 2.22 µM in the assay on MOLT-4 leukemia; 1.34 µM in the assay on SN12C renal; 2.41 µM in the assay with U251 CNS; 1.85 µM in the assay on RXF 393 renal; 1.16 µM in the assay on IGROV1 ovarian; 1.86 µM in the assay with RPMI-8226 leukemia. Further, the GI50 is 0.57 µM in the assay on MALME-3M melanoma, 0.85 µM in the assay on UO-31 renal and 1.92 µM in the assay on SW-620 colon. The TGI in the assay with MOLT-4 leukemia is 8.89 µM; in the assay with SN12C renal it was 2.61 µM; in the assay with U251 CNS, 11.1 µM; in the assay on RXF 393 renal, 4.75 µM; in the assay on IGROV1 ovarian it was 4.74 µM; with RPMI-8226 leukemia, 6.47 µM. Besides, the TGI came to 1.75 µM in the assay on MALME-3M melanoma, 2.77 µM in the assay with UO-31 renal and 4.32 µM in the assay on SW-620 colon.

As to `CC1CCC(C#N)(NOC2=NCCN2)CC1` (stereo unspecified), the GI50 in the assay on SR leukemia is 38.7 µM; with MOLT-4 leukemia it was 37.3 µM; in the assay on SN12C renal, 36.2 µM; in the assay on U251 CNS, 15.8 µM; in the assay on RXF 393 renal, above 100 µM; in the assay with IGROV1 ovarian, 41.7 µM. Further, the GI50 in the assay on RPMI-8226 leukemia is 40.4 µM; with UO-31 renal, 11.6 µM; in the assay on SW-620 colon, 33.2 µM. Besides, the TGI is above 100 µM in the assay with SR leukemia; above 100 µM in the assay on MOLT-4 leukemia; above 100 µM with SN12C renal; 32.4 µM in the assay on U251 CNS; above 100 µM in the assay on RXF 393 renal; above 100 µM in the assay on IGROV1 ovarian. Further, the TGI in the assay with RPMI-8226 leukemia, in the assay on UO-31 renal and with SW-620 colon was above 100 µM in each case.

In the case of `CC(=O)[CH-]C(=O)c1ccccc1.CC(=O)[CH-]C(=O)c1ccccc1.CC[O-].O=C1C=C([O-])C(=O)c2ccccc21.[Ti+4]`, the GI50 was 58.3 µM with MOLT-4 leukemia; 97.9 µM with SN12C renal; 32.4 µM in the assay with U251 CNS; above 100 µM in the assay on RXF 393 renal; above 100 µM in the assay with IGROV1 ovarian; 16.9 µM in the assay with RPMI-8226 leukemia. Also, the GI50 in the assay on MALME-3M melanoma is 34.8 µM; with UO-31 renal, above 100 µM; in the assay with SW-620 colon, 33 µM. Moreover, the TGI is above 100 µM in the assay with MOLT-4 leukemia; above 100 µM in the assay on SN12C renal; above 100 µM with U251 CNS; above 100 µM with RXF 393 renal; above 100 µM in the assay with IGROV1 ovarian; 85.8 µM in the assay with RPMI-8226 leukemia. In addition, the TGI in the assay with MALME-3M melanoma, with UO-31 renal and in the assay on SW-620 colon was above 100 µM in each case.

As for `COC(=O)c1cccc2c1Oc1ccccc1S2`, the TGI is above 100 µM in the assay on SR leukemia; 70 µM in the assay with MOLT-4 leukemia; above 100 µM with SN12C renal; above 100 µM in the assay on U251 CNS; above 100 µM in the assay on RXF 393 renal; above 100 µM in the assay with IGROV1 ovarian. Besides, the TGI with RPMI-8226 leukemia, in the assay with UO-31 renal and with SW-620 colon was above 100 µM throughout.

Turning to `CN(C)CCC(=O)NCc1c2nc3ccccc3nc2n2ccccc12`, the GI50 in the assay on SR leukemia was 16.9 µM; with MOLT-4 leukemia, 38.8 µM; with SN12C renal, 68 µM; in the assay with U251 CNS, above 100 µM; with RXF 393 renal, 54.8 µM; in the assay on IGROV1 ovarian, 0.338 µM. In addition, the GI50 with RPMI-8226 leukemia was 18.5 µM; in the assay with UO-31 renal, 20.7 µM; in the assay with SW-620 colon it was 58.7 µM. In addition, the TGI was 41.8 µM in the assay on SR leukemia; above 100 µM with MOLT-4 leukemia; above 100 µM with SN12C renal; above 100 µM with U251 CNS; above 100 µM in the assay with RXF 393 renal; 28.4 µM with IGROV1 ovarian. Besides, the TGI in the assay with RPMI-8226 leukemia, with UO-31 renal and in the assay on SW-620 colon was above 100 µM in each case.
